Tested on: glucocorticoid receptor
Assay: Maize protoplast GUS reporter assay with pMF6HR1PAT (GR) and p221.9GRE6
Assay type: cell-based, Human
Conditions: maize protoplasts, reporter plus effector, concentration not given
From the text: The glucocorticoid receptor DNA for the Maize transient expression construct was produced via the polymerase chain reaction (PCR) of Human Fibrosarcoma cDNA (HT1080 cell line, ATCC#CC1121) library (Clontech see Hollenberg et al., 1985). The PCR approach taken was to amplify the 2.7 kb fragment encoding the glucocorticoid receptor in two segments. The first segment entails the N-terminal end up to and including the DNA binding domain while the second fragment begins with the hinge region (amino acid 500) thought to the end of the reading frame. Thus, the PCR primer for the N-terminal end segment was designed to contain an EcoRI site and the Kozak consensus sequence for translation initiation: GREcoRI 5′ […] 3′ (SEQ ID NO: 32).
The 2.7 kb EcoRI fragment was subcloned into the vector pMF6PAT EcoRI resulting in pMF6HGIPAT (FIG. 10).
Two reporter plasmids were made by inserting the into p221.9 or p221.10 BamHI/HindIII vectors two pairs or oligonucleotides containing six copies of the glucocorticoid response element (GRE). […]
Protoplasts were isolated from a maize suspension culture derived from BE70×A188 embryogenic callus material, which was maintained by subculturing twice weekly in MS0.5mod. […] The pellet was resuspended in wash buffer and the protoplasts were counted. […] Protein concentrations of tissue homogenates were determined by the Bio-Rad protein assay (Bradford, 1976). […]

With `CC(C)CC[C@@H](O)[C@](C)(O)[C@H]1CC[C@@]2(O)C3=CC(=O)[C@]4(O)C[C@@H](O)[C@@H](O)C[C@]4(C)[C@H]3[C@H](O)C[C@]12C` [Muristerone A] the “induced levels of expression” value was “does not lead to induced levels of expression”.

Source: US7183061B2, “Method of expressing Heliothis ecdysone receptor fusion protein” (Syngenta Limited, priority 1996, dated 2007)
